Reference: patent US9518060B2, “Substituted pyrrolo[3,4-c]pyrazoles as PKC kinase inhibitors” (PFIZER INC., priority 2007, dated 2016)
Structures can show the parent of a compound that is named as a salt.

Molecular target: Protein Kinase C beta 2 (PKCβII) (Homo sapiens (Human), UniProt P05771)
Test: PKCβII coupled spectrophotometric kinase assay (PK/LDH, NADH absorbance at 340 nm)
Format: biochemical
Details: apparent Ki, ATP competitive inhibition model (Morrison equation); 0.1 mM ATP, 5 nM PKC, 30° C.; read-out: Ki app
Experimental: Protein Kinase C beta 2 (PKCβII) catalyzes the production of ADP from ATP that accompanies the phosphoryl transfer to the PKC Pseudosubstrate peptide (A→S, RFARKGSLRQKNV). This transfer is coupled to the oxidation of β-NADH through the activities of Pyruvate Kinase (PK) and Lactate Dehydrogenase (LDH). β-NADH conversion to NAD+ is monitored by the decrease in absorbance at 340 nm (e=6.22 cm^−1 mM^−1) using a Molecular Devices SPECTRA max PLUS spectrophotometer.
A typical assay was carried out on a 96-well, clear microtiter plate in a Molecular Devices spectrophotometer for 20 minutes at 30° C. in 0.1 mL of assay buffer containing 50 mM HEPES, pH 7.4, 5 nM PKC, 23 units of pyruvate kinase, 33 units of lactate dehydrogenase, 0.15 mM peptide, 0.1 mM ATP, 1 mM DTT, 4 mM PEP, 8 mM MgCl2, 0.3 mM NADH, 60 mM CaCl2, 10 mg/mL PS, 50 ng/mL PMA, 7.5% DMSO and from about 10,000 nM to 0.169 nM compound inhibitor. Stock solutions of 3-sn-phosphatidyl-L-serine (PS) and phorbol-12-myristate-13-acetate (PMA) were sonicated for 30 seconds just prior to addition to assay buffer and assays were initiated by the addition of 100 μM ATP.
Steady-state kinetic parameters for the bi-bi kinase reaction were determined at saturating phospho-acceptor peptide substrate concentration (0.15 mM) by fitting initial velocity data to the Michaelis-Menten equation, v=Vmax[S]/(KM+[S]) where v is the measured initial velocity, Vmax is the maximal enzyme velocity, [S] is the ATP substrate concentration, and KM is the Michealis constant for ATP. Enzyme turnover values (kcat) were calculated according to […], where [E] is the total enzyme concentration. Enzyme inhibition constants (apparent Ki values) were determined by fitting initial velocities at variable inhibitor concentrations to a model for ATP competitive inhibition based on the Morrison equation). Morrison, J. F., Biochim. Biophys Acta 185: 269-286 (1969).

Sequence of Protein Kinase C beta 2 (PKCβII) (P05771 other isoform, or with tags, fused parts or gaps): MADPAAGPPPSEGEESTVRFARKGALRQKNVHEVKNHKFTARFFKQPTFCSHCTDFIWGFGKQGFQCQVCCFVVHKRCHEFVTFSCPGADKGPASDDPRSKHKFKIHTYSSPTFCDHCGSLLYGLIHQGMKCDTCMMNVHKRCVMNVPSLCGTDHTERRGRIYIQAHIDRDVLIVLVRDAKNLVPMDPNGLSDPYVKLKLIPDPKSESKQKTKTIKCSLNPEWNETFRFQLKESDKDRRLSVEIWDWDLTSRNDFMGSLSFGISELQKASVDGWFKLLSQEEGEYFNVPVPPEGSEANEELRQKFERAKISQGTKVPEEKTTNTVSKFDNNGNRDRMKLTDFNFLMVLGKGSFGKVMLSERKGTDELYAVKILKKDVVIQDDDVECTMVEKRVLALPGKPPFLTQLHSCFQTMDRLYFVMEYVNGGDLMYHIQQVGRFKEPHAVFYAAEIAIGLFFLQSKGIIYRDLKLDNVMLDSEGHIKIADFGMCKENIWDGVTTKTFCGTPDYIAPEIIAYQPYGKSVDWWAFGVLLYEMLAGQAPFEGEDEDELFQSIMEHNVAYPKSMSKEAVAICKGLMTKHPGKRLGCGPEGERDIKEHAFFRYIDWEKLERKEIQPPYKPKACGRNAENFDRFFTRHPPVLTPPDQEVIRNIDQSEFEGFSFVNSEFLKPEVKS

Row | Ki [nM] | SMILES
1 | 58.2 | Cc1ncc(F)c(Nc2n[nH]c3c2CN(C(=O)N2CC(CCO)N(C)C[C@@H]2C)C3(C)C)n1 (single isomer, unassigned) [Example H9]
2 | 180 | Cc1ncc(F)c(Nc2n[nH]c3c2CN(C(=O)N2CC(CCO)N(C)C[C@@H]2C)C3(C)C)n1 (single isomer, unassigned) [Example H10]
3 | 36.5 | COc1ncc(F)c(Nc2n[nH]c3c2CN(C(=O)N2CC(CCO)N(C)C[C@@H]2C)C3(C)C)n1 (single isomer, unassigned) [Example K25]
4 | 54.7 | COc1ncc(F)c(Nc2n[nH]c3c2CN(C(=O)N2CC(CCO)N(C)C[C@@H]2C)C3(C)C)n1 (single isomer, unassigned) [Example K26]
5 | < 10 | COCc1ncc(F)c(Nc2n[nH]c3c2CN(C(=O)N2CC(CCO)N(C)C[C@@H]2C)C3(C)C)n1 (single isomer, unassigned) [Example N2]
6 | 29.1 | Cc1ncc(F)c(Nc2n[nH]c3c2CN(C(=O)N2C[C@@H](C)N(CCCO)C[C@@H]2C)C3(C)C)n1 (stereo in doubt) [AA5, [3-(5-fluoro-2-methyl-pyrimidin-4-ylamino)-6,6-dimethyl-4,6-dihydro-1H-pyrrolo[3,4-c]pyrazol-5-yl]-[4-(3-hydroxy-propyl)-2,5-dimethyl-piperazin-1-yl]-methanone]
7 | 18.9 | CCN1C[C@H](C)N(C(=O)N2Cc3c(Nc4nc(C)ncc4F)n[nH]c3C2(C)C)C[C@H]1C [AA2, 5-{[(2S,5R)-4-ethyl-2,5-dimethylpiperazin-1-yl]carbonyl}-N-(5-fluoro-2-methylpyrimidin-4-yl)-6,6-dimethyl-1,4,5,6-tetrahydropyrrolo[3,4-c]pyrazol-3-amine]
8 | 14.8 | CCN1C[C@H](C)N(C(=O)N2Cc3c(Nc4nc(C)nc(C)c4F)n[nH]c3C2(C)C)C[C@H]1C [AA3, 5-{[(2S,5R)-4-ethyl-2,5-dimethylpiperazin-1-yl]carbonyl}-N-(5-fluoro-2,6-dimethylpyrimidin-4-yl)-6,6-dimethyl-1,4,5,6-tetrahydropyrrolo[3,4-c]pyrazol-3-amine]
9 | 147 | Cc1ncc(F)c(Nc2n[nH]c3c2CN(C(=O)N2C[C@H](C)N(C)C[C@@H]2C)C3(C)C)n1 [AA4, 2(S),5(S)-{[dimethyl-4-methylpiperazin-1-yl]carbonyl}-N-(5-fluoro-2-methylpyrimidin-4-yl)-6,6-dimethyl-1,4,5,6-tetrahydropyrrolo[3,4-c]pyrazol-3-amine]
10 | 8.75 | C[C@H]1CN(C)C(C)(C)CN1C(=O)N1Cc2c(Nc3nc(N(C)C)ncc3F)n[nH]c2C1(C)C [Example A2, N^4-(6,6-dimethyl-5-{[(2S)-2,4,5,5-tetramethylpiperazin-1-yl]carbonyl}-1,4,5,6-tetrahydropyrrolo[3,4-c]pyrazol-3-yl)-5-fluoro-N^2,N^2-dimethylpyrimidine-2,4-diamine]
11 | 17.9 | C[C@H]1CN(C)C(C)(C)CN1C(=O)N1Cc2c(Nc3nc(NCC4CC4)ncc3F)n[nH]c2C1(C)C [Example A3, N^2-(cyclopropylmethyl)-N^4-(6,6-dimethyl-5-{[(2S)-2,4,5,5-tetramethylpiperazin-1-yl]carbonyl}-1,4,5,6-tetrahydropyrrolo[3,4-c]pyrazol-3-yl)-5-fluoropyrimidine-2,4-diamine]
12 | 37.6 | CC(C)CNc1ncc(F)c(Nc2n[nH]c3c2CN(C(=O)N2CC(C)(C)N(C)C[C@@H]2C)C3(C)C)n1 [Example A4, N^4-(6,6-dimethyl-5-{[(2S)-2,4,5,5-tetramethylpiperazin-1-yl]carbonyl}-1,4,5,6-, tetrahydropyrrolo[3,4-c]pyrazol-3-yl)-5-fluoro-N^2-isobutylpyrimidine-2,4-diamine acetate salt]
13 | 3.95 | C[C@H]1CN(C)C(C)(C)CN1C(=O)N1Cc2c(Nc3nc(NC4CC4)ncc3F)n[nH]c2C1(C)C [Example A5, N2-cyclopropyl-N4-(6,6-dimethyl-5-{[(2S)-2,4,5,5-tetramethylpiperazin-1-yl]carbonyl}-1,4,5,6-tetrahydropyrrolo[3,4-c]pyrazol-3-yl)-5-fluoropyrimidine-2,4-diamine]
14 | 10.8 | CNc1ncc(F)c(Nc2n[nH]c3c2CN(C(=O)N2CC(C)(C)N(C)C[C@@H]2C)C3(C)C)n1 [Example A6, N^4-(6,6-dimethyl-5-{[(2S)-2,4,5,5-tetramethylpiperazin-1-yl]carbonyl}-1,4,5,6-, tetrahydropyrrolo[3,4-c]pyrazol-3-yl)-5-fluoro-N^2-methylpyrimidine-2,4-diamine]
15 | 3.81 | CC(C)Nc1ncc(F)c(Nc2n[nH]c3c2CN(C(=O)N2CC(C)(C)N(C)C[C@@H]2C)C3(C)C)n1 [Example A7, N^4-(6,6-dimethyl-5-{[(2S)-2,4,5,5-tetramethylpiperazin-1-yl]carbonyl}-1,4,5,6-tetrahydropyrrolo[3,4-c]pyrazol-3-yl)-5-fluoro-N^2-isopropylpyrimidine-2,4-diamine]
16 | 3.39 | CCNc1nccc(Nc2n[nH]c3c2CN(C(=O)N2CC(C)(C)N(C)C[C@@H]2C)C3(C)C)n1 [Example A8, N^4-(6,6-dimethyl-5-{[(2S)-2,4,5,5-tetramethylpiperazin-1-yl]carbonyl}-1,4,5,6-tetrahydropyrrolo[3,4-c]pyrazol-3-yl)-N^2-ethylpyrimidine-2,4-diamine]
17 | 9.73 | C[C@H]1CN(C)C(C)(C)CN1C(=O)N1Cc2c(Nc3ccnc(N(C)C)n3)n[nH]c2C1(C)C [Example A9, N^4-(6,6-dimethyl-5-{[(2S)-2,4,5,5-tetramethylpiperazin-1-yl]carbonyl}-1,4,5,6-tetrahydropyrrolo[3,4-c]pyrazol-3-yl)-N^2,N^2-dimethylpyrimidine-2,4-diamine]
18 | 1.01 | Cc1ncc(F)c(Nc2n[nH]c3c2CN(C(=O)N2CC4(CCCC4)N(C)C[C@@H]2C)C3(C)C)n1 [Example A10, 5-{[(8S)-6,8-dimethyl-6,9-diazaspiro[4.5]dec-9-yl]carbonyl}-N-(5-fluoro-2-methylpyrimidin-4-yl)-6,6-dimethyl-1,4,5,6-tetrahydropyrrolo[3,4-c]pyrazol-3-amine]
19 | < 10 | CCNc1ncc(F)c(Nc2n[nH]c3c2CN(C(=O)N2C[C@@H](C)N(CC4CCOCC4)C[C@@H]2C)C3(C)C)n1 [Example A11, N^4-(5-{[(2S,5R)-2,5-dimethyl-4-(tetrahydro-2H-pyran-4-ylmethyl)piperazin-1-yl]carbonyl}-6,6-dimethyl-1,4,5,6-tetrahydropyrrolo[3,4-c]pyrazol-3-yl)-N^2-ethyl-5-fluoropyrimidine-2,4-diamine]
20 | < 10 | CCNc1ncc(F)c(Nc2n[nH]c3c2CN(C(=O)N2C[C@@H](C)N(C4CCOCC4)C[C@@H]2C)C3(C)C)n1 [Example A12, N^4-(5-{[(2S,5R)-2,5-dimethyl-4-(tetrahydro-2H-pyran-4-yl)piperazin-1-yl]carbonyl}-6,6-dimethyl-1,4,5,6-tetrahydropyrrolo[3,4-c]pyrazol-3-yl)-N^2-ethyl-5-fluoropyrimidine-2,4-diamine]
21 | 22.9 | CCN1C[C@H](C)N(C(=O)N2Cc3c(Nc4nc(OC)ncc4F)n[nH]c3C2(C)C)C[C@H]1C [Example AA1, 5-{[(2S,5R)-4-ethyl-2,5-dimethylpiperazin-1-yl]carbonyl}-N-(5-fluoro-2-methoxypyrimidin-4-yl)-6,6-dimethyl-1,4,5,6-tetrahydropyrrolo[3,4-c]pyrazol-3-amine]
22 | 5.09 | CCNc1ncc(F)c(Nc2n[nH]c3c2CN(C(=O)N2C[C@@H](C)N(CCCOC)C[C@@H]2C)C3(C)C)n1 [Example B1, N^2-ethyl-5-fluoro-N^4-(5-{[(2S,5R)-4-(3-methoxypropyl)-2,5-dimethylpiperazin-1-yl]carbonyl}-6,6-dimethyl-1,4,5,6-tetrahydropyrrolo[3,4-c]pyrazol-3-yl)pyrimidine-2,4-diamine acetate salt]
23 | 24.5 | CCNc1ncc(F)c(Nc2n[nH]c3c2CN(C(=O)N2C[C@@H]4CCCN4C[C@@H]2C)C3(C)C)n1 [Example B2, N^4-(6,6-dimethyl-5-{[(3S,8aS)-3-methylhexahydropyrrolo[1,2-a]pyrazin-2(1H)-yl]carbonyl}-1,4,5,6-tetrahydropyrrolo[3,4-c]pyrazol-3-yl)-N^2-ethyl-5-fluoropyrimidine-2,4-diamine]
24 | 2.03 | CCNc1ncc(F)c(Nc2n[nH]c3c2CN(C(=O)N2C[C@@H](C)N(C)C[C@@H]2C)C3(C)C)n1 [Example B3, N^4-(6,6-dimethyl-5-{[(2S,5R)-2,4,5-trimethylpiperazin-1-yl]carbonyl}-1,4,5,6-tetrahydropyrrolo[3,4-c]pyrazol-3-yl)-N^2-ethyl-5-fluoropyrimidine-2,4-diamine]
25 | 13.5 | CCNc1ncc(F)c(Nc2n[nH]c3c2CN(C(=O)N2C[C@@H](C)N(CCOC)C[C@@H]2C)C3(C)C)n1 [Example B4, N^2-ethyl-5-fluoro-N4-(5-{[(2S,5R)-4-(2-methoxyethyl)-2,5-dimethylpiperazin-1-yl]carbonyl}-6,6-dimethyl-1,4,5,6-tetrahydropyrrolo[3,4-c]pyrazol-3-yl)pyrimidine-2,4-diamine]
